Reference: patent US7118895B2, “Process for producing aglycon by using diglycosidase and flavor-improved food containing the aglycon and converting agent to be used in the process” (Amano Enzyme Inc., priority 2000, dated 2006)

Tested on: Crude diglycosidase
Assay: Examination of pH in the conversion into isoflavone aglycons by diglycosidase using soybean materials
Type: biochemical, Penicillium multicolor IAM7153
Design: Decomposition efficiency of genistin family in soymilk / Decomposition efficiency of genistin family in defatted soybean / Decomposition efficiency of daidzin family in defatted soybean: concentration or dose not given beside the values
Conditions: for Decomposition efficiency of daidzin family in roasted soy flour: 55° C.
In short: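 Conversion of glycosides to isoflavone aglycons was followed by HPLC after crude diglycosidase (1.88 AU/mL enzyme solution) acted at 55° C for up to 6 h on four soy materials, 50 mg each, held at pH 2–11.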

[1] = pH4.8, heat treatment of enzyme: no, reaction time 0 h
[2] = pH4.8, heat treatment of enzyme: no, reaction time 1 h
[3] = pH4.8, heat treatment of enzyme: no, reaction time 3 h
[4] = pH4.8, heat treatment of enzyme: no, reaction time 6 h
[5] = pH4.8, heat treatment of enzyme: yes, reaction time 6 h
[6] = pH6.6, heat treatment of enzyme: no, reaction time 0 h
[7] = pH6.6, heat treatment of enzyme: no, reaction time 1 h
[8] = pH6.6, heat treatment of enzyme: no, reaction time 3 h
[9] = pH6.6, heat treatment of enzyme: no, reaction time 6 h
[10] = pH6.6, heat treatment of enzyme: yes, reaction time 6 h

## O=C(O)CC(=O)OC[C@H]1O[C@@H](Oc2ccc3c(=O)c(-c4ccc(O)cc4)coc3c2)[C@H](O)[C@@H](O)[C@@H]1O [malonyldaidzin, 6″-O-malonyldaidzin]
pH1.6, heat treatment of enzyme: no, reaction time 0 h
  Decomposition efficiency of daidzin family in concentrated soybean protein: not detected
pH1.6, heat treatment of enzyme: no, reaction time 1 h
  Decomposition efficiency of daidzin family in concentrated soybean protein: not detected
pH1.6, heat treatment of enzyme: no, reaction time 3 h
  Decomposition efficiency of daidzin family in concentrated soybean protein: not detected
pH1.6, heat treatment of enzyme: no, reaction time 6 h
  Decomposition efficiency of daidzin family in concentrated soybean protein: not detected
pH1.6, heat treatment of enzyme: yes, reaction time 6 h
  Decomposition efficiency of daidzin family in concentrated soybean protein: not detected
pH2, heat treatment of enzyme no, reaction time 0 h
  Decomposition efficiency of daidzin family in roasted soy flour: not detected
pH2, heat treatment of enzyme no, reaction time 1 h
  Decomposition efficiency of daidzin family in roasted soy flour: not detected
pH2, heat treatment of enzyme no, reaction time 3 h
  Decomposition efficiency of daidzin family in roasted soy flour: not detected
pH2, heat treatment of enzyme no, reaction time 6 h
  Decomposition efficiency of daidzin family in roasted soy flour: not detected
pH2, heat treatment of enzyme yes, reaction time 6 h
  Decomposition efficiency of daidzin family in roasted soy flour: not detected
pH2.3, heat treatment of enzyme: no, reaction time 0 h
  Decomposition efficiency of daidzin family in soymilk: 55.1%
pH2.3, heat treatment of enzyme: no, reaction time 1 h
  Decomposition efficiency of daidzin family in soymilk: 54.7%
pH2.3, heat treatment of enzyme: no, reaction time 3 h
  Decomposition efficiency of daidzin family in soymilk: 51.1%
pH2.3, heat treatment of enzyme: no, reaction time 6 h
  Decomposition efficiency of daidzin family in soymilk: 48.5%
pH2.3, heat treatment of enzyme: yes, reaction time 6 h
  Decomposition efficiency of daidzin family in soymilk: 51.0%
pH2.6, heat treatment of enzyme: no, reaction time 0 h
  Decomposition efficiency of daidzin family in defatted soybean: 41.0%
pH2.6, heat treatment of enzyme: no, reaction time 1 h
  Decomposition efficiency of daidzin family in defatted soybean: 41.2%
pH2.6, heat treatment of enzyme: no, reaction time 3 h
  Decomposition efficiency of daidzin family in defatted soybean: 41.8%
pH2.6, heat treatment of enzyme: no, reaction time 6 h
  Decomposition efficiency of daidzin family in defatted soybean: 40.2%
pH2.6, heat treatment of enzyme: yes, reaction time 6 h
  Decomposition efficiency of daidzin family in defatted soybean: 38.9%
pH2.7, heat treatment of enzyme: no, reaction time 0 h
  Decomposition efficiency of daidzin family in concentrated soybean protein: not detected
pH2.7, heat treatment of enzyme: no, reaction time 1 h
  Decomposition efficiency of daidzin family in concentrated soybean protein: not detected
pH2.7, heat treatment of enzyme: no, reaction time 3 h
  Decomposition efficiency of daidzin family in concentrated soybean protein: not detected
pH2.7, heat treatment of enzyme: no, reaction time 6 h
  Decomposition efficiency of daidzin family in concentrated soybean protein: not detected
pH2.7, heat treatment of enzyme: yes, reaction time 6 h
  Decomposition efficiency of daidzin family in concentrated soybean protein: not detected
pH3, heat treatment of enzyme no, reaction time 0 h
  Decomposition efficiency of daidzin family in roasted soy flour: not detected
pH3, heat treatment of enzyme no, reaction time 1 h
  Decomposition efficiency of daidzin family in roasted soy flour: not detected
pH3, heat treatment of enzyme no, reaction time 3 h
  Decomposition efficiency of daidzin family in roasted soy flour: not detected
pH3, heat treatment of enzyme no, reaction time 6 h
  Decomposition efficiency of daidzin family in roasted soy flour: not detected
pH3, heat treatment of enzyme yes, reaction time 6 h
  Decomposition efficiency of daidzin family in roasted soy flour: not detected
pH3.4, heat treatment of enzyme: no, reaction time 0 h
  Decomposition efficiency of daidzin family in defatted soybean: 41.0%
pH3.4, heat treatment of enzyme: no, reaction time 1 h
  Decomposition efficiency of daidzin family in defatted soybean: 39.4%
pH3.4, heat treatment of enzyme: no, reaction time 3 h
  Decomposition efficiency of daidzin family in defatted soybean: 34.5%
pH3.4, heat treatment of enzyme: no, reaction time 6 h
  Decomposition efficiency of daidzin family in defatted soybean: 29.0%
pH3.4, heat treatment of enzyme: yes, reaction time 6 h
  Decomposition efficiency of daidzin family in defatted soybean: 37.1%
pH3.5, heat treatment of enzyme: no, reaction time 0 h
  Decomposition efficiency of daidzin family in soymilk: 55.1%
pH3.5, heat treatment of enzyme: no, reaction time 1 h
  Decomposition efficiency of daidzin family in soymilk: 35.6%
pH3.5, heat treatment of enzyme: no, reaction time 3 h
  Decomposition efficiency of daidzin family in soymilk: 15.1%
pH3.5, heat treatment of enzyme: no, reaction time 6 h
  Decomposition efficiency of daidzin family in soymilk: 7.4%
pH3.5, heat treatment of enzyme: yes, reaction time 6 h
  Decomposition efficiency of daidzin family in soymilk: 49.1%
pH3.7, heat treatment of enzyme: no, reaction time 0 h
  Decomposition efficiency of daidzin family in concentrated soybean protein: not detected
pH3.7, heat treatment of enzyme: no, reaction time 1 h
  Decomposition efficiency of daidzin family in concentrated soybean protein: not detected
pH3.7, heat treatment of enzyme: no, reaction time 3 h
  Decomposition efficiency of daidzin family in concentrated soybean protein: not detected
pH3.7, heat treatment of enzyme: no, reaction time 6 h
  Decomposition efficiency of daidzin family in concentrated soybean protein: not detected
pH3.7, heat treatment of enzyme: yes, reaction time 6 h
  Decomposition efficiency of daidzin family in concentrated soybean protein: not detected
pH4, heat treatment of enzyme no, reaction time 0 h
  Decomposition efficiency of daidzin family in roasted soy flour: not detected
pH4, heat treatment of enzyme no, reaction time 1 h
  Decomposition efficiency of daidzin family in roasted soy flour: not detected
pH4, heat treatment of enzyme no, reaction time 3 h
  Decomposition efficiency of daidzin family in roasted soy flour: not detected
pH4, heat treatment of enzyme no, reaction time 6 h
  Decomposition efficiency of daidzin family in roasted soy flour: not detected
pH4, heat treatment of enzyme yes, reaction time 6 h
  Decomposition efficiency of daidzin family in roasted soy flour: not detected
[1]
  Decomposition efficiency of daidzin family in defatted soybean: 40.7%
  Decomposition efficiency of daidzin family in soymilk: 56.2%
[2]
  Decomposition efficiency of daidzin family in defatted soybean: 40.5%
  Decomposition efficiency of daidzin family in soymilk: 47.4%
[3]
  Decomposition efficiency of daidzin family in defatted soybean: 36.7%
  Decomposition efficiency of daidzin family in soymilk: 33.9%
[4]
  Decomposition efficiency of daidzin family in defatted soybean: 30.5%
  Decomposition efficiency of daidzin family in soymilk: 20.3%
[5]
  Decomposition efficiency of daidzin family in defatted soybean: 38.4%
  Decomposition efficiency of daidzin family in soymilk: 49.7%
pH5, heat treatment of enzyme no, reaction time 0 h
  Decomposition efficiency of daidzin family in roasted soy flour: not detected
pH5, heat treatment of enzyme no, reaction time 1 h
  Decomposition efficiency of daidzin family in roasted soy flour: not detected
pH5, heat treatment of enzyme no, reaction time 3 h
  Decomposition efficiency of daidzin family in roasted soy flour: not detected
pH5, heat treatment of enzyme no, reaction time 6 h
  Decomposition efficiency of daidzin family in roasted soy flour: not detected
pH5, heat treatment of enzyme yes, reaction time 6 h
  Decomposition efficiency of daidzin family in roasted soy flour: not detected
pH5.1, heat treatment of enzyme: no, reaction time 0 h
  Decomposition efficiency of daidzin family in concentrated soybean protein: not detected
pH5.1, heat treatment of enzyme: no, reaction time 1 h
  Decomposition efficiency of daidzin family in concentrated soybean protein: not detected
pH5.1, heat treatment of enzyme: no, reaction time 3 h
  Decomposition efficiency of daidzin family in concentrated soybean protein: not detected
pH5.1, heat treatment of enzyme: no, reaction time 6 h
  Decomposition efficiency of daidzin family in concentrated soybean protein: not detected
pH5.1, heat treatment of enzyme: yes, reaction time 6 h
  Decomposition efficiency of daidzin family in concentrated soybean protein: not detected
pH5.4, heat treatment of enzyme: no, reaction time 0 h
  Decomposition efficiency of daidzin family in defatted soybean: 40.7%
pH5.4, heat treatment of enzyme: no, reaction time 1 h
  Decomposition efficiency of daidzin family in defatted soybean: 44.2%
pH5.4, heat treatment of enzyme: no, reaction time 3 h
  Decomposition efficiency of daidzin family in defatted soybean: 41.5%
pH5.4, heat treatment of enzyme: no, reaction time 6 h
  Decomposition efficiency of daidzin family in defatted soybean: 36.9%
pH5.4, heat treatment of enzyme: yes, reaction time 6 h
  Decomposition efficiency of daidzin family in defatted soybean: 44.9%
pH6.2, heat treatment of enzyme: no, reaction time 0 h
  Decomposition efficiency of daidzin family in soymilk: 56.2%
pH6.2, heat treatment of enzyme: no, reaction time 1 h
  Decomposition efficiency of daidzin family in soymilk: 54.1%
pH6.2, heat treatment of enzyme: no, reaction time 3 h
  Decomposition efficiency of daidzin family in soymilk: 46.4%
pH6.2, heat treatment of enzyme: no, reaction time 6 h
  Decomposition efficiency of daidzin family in soymilk: 41.9%
pH6.2, heat treatment of enzyme: yes, reaction time 6 h
  Decomposition efficiency of daidzin family in soymilk: 49.7%
pH6.5, heat treatment of enzyme no, reaction time 0 h
  Decomposition efficiency of daidzin family in roasted soy flour: not detected
pH6.5, heat treatment of enzyme no, reaction time 1 h
  Decomposition efficiency of daidzin family in roasted soy flour: not detected
pH6.5, heat treatment of enzyme no, reaction time 3 h
  Decomposition efficiency of daidzin family in roasted soy flour: not detected
pH6.5, heat treatment of enzyme no, reaction time 6 h
  Decomposition efficiency of daidzin family in roasted soy flour: not detected
pH6.5, heat treatment of enzyme yes, reaction time 6 h
  Decomposition efficiency of daidzin family in roasted soy flour: not detected
[6]
  Decomposition efficiency of daidzin family in concentrated soybean protein: not detected
  Decomposition efficiency of daidzin family in defatted soybean: 43.1%
[7]
  Decomposition efficiency of daidzin family in concentrated soybean protein: not detected
  Decomposition efficiency of daidzin family in defatted soybean: 45.9%
[8]
  Decomposition efficiency of daidzin family in concentrated soybean protein: not detected
  Decomposition efficiency of daidzin family in defatted soybean: 44.0%
[9]
  Decomposition efficiency of daidzin family in concentrated soybean protein: not detected
  Decomposition efficiency of daidzin family in defatted soybean: 41.8%
[10]
  Decomposition efficiency of daidzin family in concentrated soybean protein: not detected
  Decomposition efficiency of daidzin family in defatted soybean: 41.2%
pH7.2, heat treatment of enzyme: no, reaction time 0 h
  Decomposition efficiency of daidzin family in soymilk: 56.1%
pH7.2, heat treatment of enzyme: no, reaction time 1 h
  Decomposition efficiency of daidzin family in soymilk: 56.4%
pH7.2, heat treatment of enzyme: no, reaction time 3 h
  Decomposition efficiency of daidzin family in soymilk: 52.4%
pH7.2, heat treatment of enzyme: no, reaction time 6 h
  Decomposition efficiency of daidzin family in soymilk: 48.2%
pH7.2, heat treatment of enzyme: yes, reaction time 6 h
  Decomposition efficiency of daidzin family in soymilk: 48.3%
pH7.8, heat treatment of enzyme: no, reaction time 0 h
  Decomposition efficiency of daidzin family in defatted soybean: 42.0%
pH7.8, heat treatment of enzyme: no, reaction time 1 h
  Decomposition efficiency of daidzin family in defatted soybean: 43.6%
pH7.8, heat treatment of enzyme: no, reaction time 3 h
  Decomposition efficiency of daidzin family in defatted soybean: 41.4%
pH7.8, heat treatment of enzyme: no, reaction time 6 h
  Decomposition efficiency of daidzin family in defatted soybean: 38.7%
pH7.8, heat treatment of enzyme: yes, reaction time 6 h
  Decomposition efficiency of daidzin family in defatted soybean: 36.7%
pH8.5, heat treatment of enzyme no, reaction time 0 h
  Decomposition efficiency of daidzin family in roasted soy flour: not detected
pH8.5, heat treatment of enzyme no, reaction time 1 h
  Decomposition efficiency of daidzin family in roasted soy flour: not detected
pH8.5, heat treatment of enzyme no, reaction time 3 h
  Decomposition efficiency of daidzin family in roasted soy flour: not detected
pH8.5, heat treatment of enzyme no, reaction time 6 h
  Decomposition efficiency of daidzin family in roasted soy flour: not detected
pH8.5, heat treatment of enzyme yes, reaction time 6 h
  Decomposition efficiency of daidzin family in roasted soy flour: not detected
pH8.6, heat treatment of enzyme: no, reaction time 0 h
  Decomposition efficiency of daidzin family in concentrated soybean protein: not detected
pH8.6, heat treatment of enzyme: no, reaction time 1 h
  Decomposition efficiency of daidzin family in concentrated soybean protein: not detected
pH8.6, heat treatment of enzyme: no, reaction time 3 h
  Decomposition efficiency of daidzin family in concentrated soybean protein: not detected
pH8.6, heat treatment of enzyme: no, reaction time 6 h
  Decomposition efficiency of daidzin family in concentrated soybean protein: not detected
pH8.6, heat treatment of enzyme: yes, reaction time 6 h
  Decomposition efficiency of daidzin family in concentrated soybean protein: not detected
pH11.6, heat treatment of enzyme: no, reaction time 0 h
  Decomposition efficiency of daidzin family in soymilk: 52.5%
pH11.6, heat treatment of enzyme: no, reaction time 1 h
  Decomposition efficiency of daidzin family in soymilk: 56.4%
pH11.6, heat treatment of enzyme: no, reaction time 3 h
  Decomposition efficiency of daidzin family in soymilk: 50.4%
pH11.6, heat treatment of enzyme: no, reaction time 6 h
  Decomposition efficiency of daidzin family in soymilk: 47.7%
pH11.6, heat treatment of enzyme: yes, reaction time 6 h
  Decomposition efficiency of daidzin family in soymilk: 46.1%
